# Test results taken from US10023518B2, “Substituted aromatic compounds and related method for the treatment of fibrosis” (PROMETIC BIOSCIENCES INC., priority 2013, dated 2018).
# How the values were obtained:
# [1] = system: α-SMA mRNA expression in TGF-β induced NRK-49F cells; assay: Inhibition of α-SMA mRNA expression in TGF-β induced NRK-49F cells (quantitative real-time PCR); type: cell-based, rat; conditions: TGF-β 10 ng/ml
# Description: In fibroblast, analysis was undertaken to determine the effect of preferred compounds of the present invention on TGF-β-induced α-SMA (marker of fibrosis) mRNA expression on normal rat kidney fibroblast (NRK-49F). NRK-49F were treated with TGF-β at a concentration of 10 ng/ml and became activated (myofibroblast) and expressed α-SMA. Expression of the profibrotic marker α-SMA was determined by quantitative real-time PCR.
# [2] = system: collagen 1 mRNA expression in TGF-β induced HK-2 cells; assay: Inhibition of collagen 1 mRNA expression in TGF-β induced HK-2 epithelial cells (quantitative real-time PCR); type: cell-based, human; conditions: TGF-β 10 ng/mL; for expression of collagen in TGF-β-induced HK-2 cells (in words): concentration not given
# Description: In epithelial cells, analysis was undertaken to determine the effect of compounds of the invention on TGF-β-induced collagen 1 (marker of fibrosis) on human proximal tubule epithelial cells (HK-2). HK-2 cells are immortalized proximal tubule epithelial cells, from human kidney, which were treated with TGF-β at a concentration of 10 ng/mL Expression of the profibrotic marker collagen 1 was determined by quantitative real-time PCR.
# db/db diabetic mouse = assay: Glomerular filtration rate in nephrectomised db/db diabetic mouse model of renal fibrosis; type: in vivo; conditions: db/db mice, right nephrectomy day 0, GFR on day 119
# Description: FIG. 1 illustrates the glomerular filtration rate (GFR) function in db/db diabetic mouse compared to C57BL/6 mice (control mice), and in db/db diabetic mouse following oral treatment with Compound 1 at a dose of 10 and 50 mg/kg.
# Typical experimental models of kidney fibrosis in mice or rats include db/db nephritic mice (models for diabetic nephropathy) and reflects the nephropathy observed in human. Evaluation of the effect of Compound 1 on diabetic nephropathy was performed in a db/db mouse model. Briefly, total nephrectomy of the right kidney was performed on day 0 and db/db mice (6-week old) were treated with vehicle or Compound 1 (10 and 50 mg/kg, oral once a day) from day 1 and glomerular filtration rate (GFR) was measured on day 119 as a direct measure of kidney function. FIG. 1 illustrates the reduction of GFR in db/db diabetic mouse compared to C57BL/6 mice (control mice), showing clearly the nephropathy associated with diabetes.
smiles,measurement,setting,value
"CCCCCc1cc(CC(=O)[O-])cc(CCCCC)c1O.[Na+] [Compound 5, Sodium Salt of 2-(4-Hydroxy-3,5-dipentylphenyl)acetic acid]",α-SMA expression in NRK-49F % of inhibition [mM],[1]; 0.025 mM compound,41% [0.025]
"CCCCCCc1cc(CCCCCC)cc(CC(=O)[O-])c1.[Na+] [Compound 2, Sodium Salt of 2-(3,5-Dihexylphenyl)acetic acid]",α-SMA expression in NRK-49F % of inhibition [mM],[1]; 0.006 mM compound,89% [0.006]
same,Collagen expression in HK-2 cells % of inhibition [mM],[2]; 0.008 mM compound,100% [0.008]
same,expression of collagen in TGF-β-induced HK-2 cells (in words),[2],inhibits the expression of collagen
"CCCCCc1cc(CCCCC)c(O)c(CC(=O)[O-])c1.[Na+] [Compound 3, Sodium Salt of 2-(2-Hydroxy-3,5-dipentylphenyl)acetic acid]",α-SMA expression in NRK-49F % of inhibition [mM],[1]; 0.0125 mM compound,100% [0.0125]
"CCCCCc1cc(CCCCC)cc(CC(=O)[O-])c1.[Na+] [Compound 1, Sodium 2-[3,5-Dipentylphenyl]acetate]",α-SMA expression in NRK-49F % of inhibition [mM],[1]; 0.01 mM compound,94% [0.01]
same,Collagen expression in HK-2 cells % of inhibition [mM],[2]; 0.02 mM compound,100% [0.02]
same,expression of collagen in TGF-β-induced HK-2 cells (in words),[2],inhibits the expression of collagen
same,glomerular filtration rate (GFR),db/db diabetic mouse; 10 mg/kg oral once a day from day 1,increases the GFR function of the kidney up to normal
same,glomerular filtration rate (GFR),db/db diabetic mouse; 50 mg/kg oral once a day from day 1,increases the GFR function of the kidney up to normal
same,melting point,,225 to 230 °C
